Results from US20250098679A1, “HERBICIDAL PYRIDONE DERIVATIVES” (SYNGENTA CROP PROTECTION AG, priority 2021, published 2025).

Assays:
Assay type in all cases: in vivo
[1] = tested on: Amaranthus palmeri (AMAPA); experiment: Post-emergence Test, Amaranthus palmeri (AMAPA); parameters: key: 5=81-100%, 4=61-80%, 3=41-60%, 2=21-40%, 1=0-20% damage; details: evaluated after 13 days
Procedure, shortened: (§1)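 Tested at 1000 g/ha unless otherwise stated. Plants were held at 24/16 °C day/night with a 14 h light period. Percent damage was read at 13 days and reported in five bands.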

[2] = tested on: Amaranthus palmeri (AMAPA); experiment: Pre-emergence Test, Amaranthus palmeri (AMAPA); details: evaluated after 13 days
Zea mays (ZEAMX) [3] = experiment: Post-emergence Test, Zea mays (ZEAMX); parameters: key to percentage damage caused to the plant, ZEAMX (five-point scale): 5=81-100%, 4=61-80%, 3=41-60%, 2=21-40%, 1=0-20% damage; details: evaluated after 13 days
Procedure, shortened: as §1

[4] = tested on: Ipomoea hederacea (IPOHE); experiment: Pre-emergence Test, Ipomoea hederacea (IPOHE); details: evaluated after 13 days
Zea mays (ZEAMX) [5] = experiment: Pre-emergence Test, Zea mays (ZEAMX); details: evaluated after 13 days
Setaria faberi (SETFA) = experiment: Post-emergence Test, Setaria faberi (SETFA); parameters: key to percentage damage caused to the plant, SETFA (five-point scale): 5=81-100%, 4=61-80%, 3=41-60%, 2=21-40%, 1=0-20% damage; details: 1000 g/ha, evaluated after 13 days
Procedure, shortened: as §1

[6] = tested on: Echinochloa crus-galli (ECHCG); experiment: Post-emergence Test, Echinochloa crus-galli (ECHCG); parameters: key to percentage damage caused to the plant, ECHCG (five-point scale): 5=81-100%, 4=61-80%, 3=41-60%, 2=21-40%, 1=0-20% damage; details: 250 g/Ha, evaluated after 13 days
Procedure, shortened: as §1

[7] = tested on: Amaranthus retoflexus (AMARE); experiment: Pre-emergence Test, Amaranthus retoflexus (AMARE); details: evaluated after 13 days
[8] = tested on: Ipomoea hederacea (IPOHE); experiment: Post-emergence Test, Ipomoea hederacea (IPOHE); parameters: key to percentage damage caused to the plant, IPOHE (five-point scale): 5=81-100%, 4=61-80%, 3=41-60%, 2=21-40%, 1=0-20% damage; details: evaluated after 13 days
Procedure, shortened: as §1

[9] = tested on: Echinochloa crus-galli (ECHCG); experiment: Pre-emergence Test, Echinochloa crus-galli (ECHCG); details: evaluated after 13 days
[10] = tested on: Amaranthus retoflexus (AMARE); experiment: Post-emergence Test, Amaranthus retoflexus (AMARE); parameters: key to percentage damage caused to the plant, AMARE (five-point scale): 5=81-100%, 4=61-80%, 3=41-60%, 2=21-40%, 1=0-20% damage; details: evaluated after 13 days
Procedure, shortened: as §1

SMILES | percentage damage caused to the plant, AMAPA (five-point scale) ([1]; 250 g/Ha) | percentage damage caused to the plant, AMAPA (five-point scale) ([1]; 1000 g/ha) | Pre-emergence Test AMAPA, percentage damage caused to the plant (five-point scale) ([2]; 250 g/Ha (*)) | Pre-emergence Test AMAPA, percentage damage caused to the plant (five-point scale) ([2]; 1000 g/ha) | percentage damage caused to the plant, ZEAMX (five-point scale) (Zea mays (ZEAMX) [3]; 250 g/Ha) | percentage damage caused to the plant, ZEAMX (five-point scale) (Zea mays (ZEAMX) [3]; 1000 g/ha) | Pre-emergence Test IPOHE, percentage damage caused to the plant (five-point scale) ([4]; 250 g/Ha (*)) | Pre-emergence Test IPOHE, percentage damage caused to the plant (five-point scale) ([4]; 1000 g/ha) | Pre-emergence Test ZEAMX, percentage damage caused to the plant (five-point scale) (Zea mays (ZEAMX) [5]; 250 g/Ha (*)) | Pre-emergence Test ZEAMX, percentage damage caused to the plant (five-point scale) (Zea mays (ZEAMX) [5]; 1000 g/ha) | percentage damage caused to the plant, SETFA (five-point scale) (Setaria faberi (SETFA)) | percentage damage caused to the plant, ECHCG (five-point scale) [6] | Pre-emergence Test AMARE, percentage damage caused to the plant (five-point scale) ([7]; 250 g/Ha (*)) | Pre-emergence Test AMARE, percentage damage caused to the plant (five-point scale) ([7]; 1000 g/ha) | percentage damage caused to the plant, IPOHE (five-point scale) ([8]; 250 g/Ha) | percentage damage caused to the plant, IPOHE (five-point scale) ([8]; 1000 g/ha) | Pre-emergence Test ECHCG, percentage damage caused to the plant (five-point scale) ([9]; 250 g/Ha (*)) | Pre-emergence Test ECHCG, percentage damage caused to the plant (five-point scale) ([9]; 1000 g/ha) | percentage damage caused to the plant, AMARE (five-point scale) ([10]; 250 g/Ha) | percentage damage caused to the plant, AMARE (five-point scale) ([10]; 1000 g/ha)
CCn1c(Cn2ccc(Br)n2)cc(=O)c(C(=O)O)c1-c1ccc(Cl)c(Cl)c1 [Compound 177, 6-[(3-bromopyrazol-1-yl)methyl]-2-(3,4-dichlorophenyl)-1-ethyl-4-oxo-pyridine-3-carboxylic acid] | 2 (2=21-40%) | 2 (2=21-40%) | 1 (1=0-20%) | 1 (1=0-20%) | 1 (1=0-20%) | 1 (1=0-20%) | 1 (1=0-20%) | 2 (2=21-40%) | 0 | 0 | 4 (4=61-80%) | 3 (3=41-60%) | 0 | 1 (1=0-20%) | 4 (4=61-80%) | 3 (3=41-60%) | 4 (4=61-80%) | 5 (5=81-100%) | 1 (1=0-20%) | 3 (3=41-60%)
CCn1c(Cn2ccc([N+](=O)[O-])n2)cc(=O)c(C(=O)O)c1-c1ccc(Cl)c(Cl)c1 [Compound 178, 2-(3,4-dichlorophenyl)-1-ethyl-6-[(3-nitropyrazol-1-yl)methyl]-4-oxo-pyridine-3-carboxylic acid] | 1 (1=0-20%) | 1 (1=0-20%) | 0 | 0 | 0 | 0 | 0 | 0 | 0 | 0 | 2 (2=21-40%) | 1 (1=0-20%) | 0 | 0 | 1 (1=0-20%) | 0 | 1 (1=0-20%) | 2 (2=21-40%) | 0 | 1 (1=0-20%)
CCn1c(Cn2ccc(C3CC3)n2)cc(=O)c(C(=O)O)c1-c1ccc(Cl)c(Cl)c1 [Compound 179, 6-[(3-cyclopropylpyrazol-1-yl)methyl]-2-(3,4-dichlorophenyl)-1-ethyl-4-oxo-pyridine-3-carboxylic acid] | 1 (1=0-20%) | 3 (3=41-60%) | 0 | 2 (2=21-40%) | 3 (3=41-60%) | 4 (4=61-80%) | 0 | 4 (4=61-80%) | 0 | 5 (5=81-100%) | 4 (4=61-80%) | 3 (3=41-60%) | – | 4 (4=61-80%) | 4 (4=61-80%) | 4 (4=61-80%) | 1 (1=0-20%) | 5 (5=81-100%) | 0 | 3 (3=41-60%)
CCn1c(Cn2ccc(C(C)=O)n2)cc(=O)c(C(=O)O)c1-c1ccc(Cl)c(Cl)c1 [Compound 180, 6-[(3-acetylpyrazol-1-yl)methyl]-2-(3,4-dichlorophenyl)-1-ethyl-4-oxo-pyridine-3-carboxylic acid] | 0 | 0 | – | 1 (1=0-20%) | 0 | 1 (1=0-20%) | – | 0 | – | 0 | 1 (1=0-20%) | 1 (1=0-20%) | – | 2 (2=21-40%) | 0 | 1 (1=0-20%) | – | 1 (1=0-20%) | 0 | 1 (1=0-20%)
CCn1c(Cn2ccc(OCC(F)(F)F)n2)cc(=O)c(C(=O)O)c1-c1ccc(Cl)c(Cl)c1 [Compound 185, 2-(3,4-dichlorophenyl)-1-ethyl-4-oxo-6-[[3-(2,2,2-trifluoroethoxy)pyrazol-1-yl]methyl]pyridine-3-carboxylic acid] | 1 (1=0-20%) | 3 (3=41-60%) | 1 (1=0-20%) | 2 (2=21-40%) | 1 (1=0-20%) | 4 (4=61-80%) | 1 (1=0-20%) | 3 (3=41-60%) | 0 | 3 (3=41-60%) | 4 (4=61-80%) | 3 (3=41-60%) | 1 (1=0-20%) | 3 (3=41-60%) | 3 (3=41-60%) | 3 (3=41-60%) | 1 (1=0-20%) | 5 (5=81-100%) | 1 (1=0-20%) | 3 (3=41-60%)
